# Assay results as given in patent US6852888B2, “Carboxylic acid derivatives” (Syngenta Crop Protection, Inc., priority 1998, dated 2005).
# Columns and labels:
# [1] = tested on: Aphis craccivora; assay: Action against Aphis craccivora; format: in vivo; settings: 400 ppm spray on infested pea seedlings, 20° C., evaluated 3 and 6 days later, read-out: percentage reduction in population (% activity)
# Procedure: Action against Aphis craccivora
# Pea seedlings are infested with Aphis craccivora, subsequently sprayed with a spray mixture comprising 400 ppm of the test compound and incubated at 20° C. The evaluation is carried out 3 and 6 days later. The percentage reduction in population (% activity) is determined by comparing the number of dead aphids on the treated plants with that on the untreated plants.
# [2] = tested on: Tetranychus urticae; assay: Action against Tetranychus urticae; format: in vivo; settings: 400 ppm spray on young bean plants, mixed population, 6 days at 25° C.
# Procedure: Action against Tetranychus urticae
# Young bean plants are populated with a mixed population of Tetranychus urticae and sprayed one day later with an aqueous emulsion spray mixture comprising 400 ppm of the test compound. The plants are then incubated for 6 days at 25° C. and subsequently evaluated. The percentage reduction in population (% activity) is determined by comparing the number of dead eggs, larvae and adults on the treated plants with that on the untreated plants.
# [3] = tested on: Myzus persicae; assay: Systemic action against Myzus persicae; format: in vivo; settings: pea seedlings with roots in spray mixture of 400 ppm, 20° C., evaluated 3 and 6 days later
# Procedure: Systemic Action against Myzus persicae
# Pea seedlings are infested with Myzus persicae, and then placed with their roots in a spray mixture comprising 400 ppm of the test compound and incubated at 20° C. The evaluation is carried out 3 and 6 days later. The percentage reduction in population (% activity) is determined by comparing the number of dead aphids on the treated plants with that on the untreated plants.
structure (smiles),measurement,setting,value
"Cc1cc(OC(F)(F)C(F)Cl)ccc1NC(=O)CCCC=C(F)F (stereo not shown) [Compound 1.1, 6,6-Difluorohex-5-enoic acid [4-(2-chloro-1,1,2-trifluoroethoxy)-2-methylphenyl]amide]",inhibition at 400 ppm,[1],> 80%
same,melting point,,59 to 60 °C
O=C(CCCC=C(F)F)Nc1cccc(OC(F)(F)C(F)F)c1 [Compound 1.17],percentage reduction in population (% activity),[2],more than 80%
O=C(CCCC=C(F)F)Nc1ccc(OC(F)(F)C(F)F)cc1 [Compound 1.3],percentage reduction in population (% activity),[3],more than 80%
